According to the NIST ThermoML archive (doi:10.1016/j.fluid.2015.07.049):
± gives the expanded uncertainty stated by the source.

Details: 313.15 K; Liquid

Going from CC(C)CC(C)(C)C [2,2,4-trimethylpentane] to CCCCCCC [heptane], the “vapor or sublimation pressure” value falls from 12.94 ± 0.057 kPa to 12.31 ± 0.055 kPa.

For CCCCCO [pentan-1-ol], the “vapor or sublimation pressure” value was 0.898 ± 0.018 kPa.
